Assay results reported in US20200282003A1, “MITOCHONDRIAL-TARGETED AN[…] AGAINST MECHANICAL VENTILATION-INDUCED DIAPHRAGM DYSFUNCTION AND SKELETAL MUSCLE ATROPHY” (Cornell University, priority 2010, published 2020).
Square brackets hold non-standard residues; d marks the D form. Peptide text beside a SMILES is read from it. Dmt = Cc1cc(O)cc(C)c1C[C@H](N)C(=O)O

What was measured:
[1] = system: several mammalian cell types; conditions: energy-independent manner; cited from earlier work
[2] = mean ± SEM
Text: To analyze mitochondrial ROS emissions following MV-induced diaphragmatic oxidative stress and weakness, rats were randomly assigned to one of three experimental groups (n=12/group): (1) an acutely anesthetized control group; (2) a 12-hour MV group (MV); and 3) a 12-hour MV group treated with the mitochondrial-targeted antioxidant SS-31 (MVSS). Because of the large tissue requirement for our numerous dependent measures, six animals from each experimental group were used for the mitochondrial measures and the remaining six animals in each group were employed in all other biochemical assays.
Animals in the control group were acutely anesthetized with an intraperitoneal (IP) injection of sodium pentobarbital (60 mg/kg body weight). […] The mitochondrial-targeted antioxidant SS-31 was dissolved in saline and delivered in a bolus (loading) dose (3 mg/kg; subcutaneous injection) 15 min prior to initiation of MV. A constant intravenous infusion (0.05 mg/kg/hr) of SS-31 was maintained throughout MV.
All surgical procedures were performed using aseptic techniques. Animals in the MV groups were anesthetized with an IP injection of sodium pentobarbital (60 mg/kg body weight), tracheostomized, and mechanically ventilated with a pressure-controlled ventilator (Servo Ventilator 300, Siemens) for 12 hours with the following settings: upper airway pressure limit: 20 cm H2O, typical pressure generation above PEEP was 6-9 cm H2O, respiratory rate: 80 bpm; and PEEP: 1 cm H2O.
The carotid artery was cannulated to permit the continuous measurement of blood pressure and the collection of blood during the protocol. Arterial blood samples (100 μl per sample) were removed periodically and analyzed for arterial pO2, pCO2 and pH using an electronic blood-gas analyzer (GEM Premier 3000; Instrumentation Laboratory, Lexington, Mass.). Ventilator adjustments were made if arterial PCO2 exceeded 40 mm Hg. Arterial PO2 was maintained >60 mmHg throughout the experiment by increasing the FIO2 (22-26% oxygen).
A venous catheter was inserted into the jugular vein for continuous infusion of sodium pentobarbital (˜10 mg/kg/hr) and fluid replacement. Body temperature was maintained at 37° C. by use of a recirculating heating blanket and heart rate was monitored via a lead II electrocardiograph. Continuous care during the MV protocol included lubricating the eyes, expressing the bladder, removing airway mucus, rotating the animal, and passively moving the limbs. Animals also received an intramuscular injection of glycopyrrolate (0.18 mg/kg) every two hours during MV to reduce airway secretions.

[3] = rats at completion of 12 h MV with SS-31

Molecule | Penetration of the plasma membrane [1] | Arterial PCO2 [2, 3] | Arterial PO2 [2, 3] [mm/Hg] | Arterial pH [2, 3] | Systolic blood pressure [2, 3] [mm/Hg] | Heart rate ([2]; rats at completion of 12 h MV, SS-31 3 mg/kg s.c. bolus + 0.05 mg/kg/hr i.v.) [beats/min]
2′,6′-Dmt-D-Arg-Phe-Lys-NH2 [SS-02] | readily penetrates | – | – | – | – | –
Cc1cc(O)cc(C)c1C[C@H](NC(=O)[C@H](N)CCCNC(=N)N)C(=O)N[C@@H](CCCCN)C(=O)N[C@@H](Cc1ccccc1)C(N)=O [SS-31, D-Arg-2′,6′-Dmt-Lys-Phe-NH2] (H-[dR][Dmt]KF-NH2) | – | 46 ± 1 | 75 ± 5 | 7.41 ± 0.01 | 108 ± 5 | 347 ± 7
